Source: patent US4996211A, “Substituted dibenzocycloheptenimines” (Merck Sharp & Dohme Ltd., priority 1987, dated 1991)
Counter-ions that a name gives are not always drawn.

System: tonic seizures induced by N-methyl-DL-aspartic acid (NMDLA)
Assay: Antagonism of NMDLA-induced tonic seizures in mice
Format: in vivo, mouse (male Swiss-Webster)
Conditions: Mus musculus, iv; i.v. 15 min before s.c. NMDLA (500 mg/kg); groups of 8 mice, observed 30 min; probit analysis
Protocol: The compounds useful in this invention bind with a high affinity and in a reversible and saturable manner to membranes from rat brain cortex. In addition these compounds potently and selectively block responses to NMDA in a brain slice from rat cortex, and antagonise NMDA-induced seizures in the mouse.
Compounds of the invention were examined for their ability to antagonise tonic seizures induced by N-methyl-DL-aspartic acid (NMDLA). Groups of 8 male Swiss-Webster mice (25-30 g) were injected intravenously with the test compound at various doses, 15 min before s.c. administration of NMDLA (500 mg/kg). […] ED50 values for the antagonism of the NMDLA induced tonic seizures were determined using probit analysis.

| SMILES | ED50 |
| --- | --- |
| Cc1ccc2c(c1)C1(C)NC2Cc2ccccc21 (stereo not shown) [Example 1, 5,7-Dimethyl-10.11-dihydro-5H-dibenzo[a,d]cyclohepten-5,10-imine] | < 10 mg/kg |
| Cc1ccc2c(c1)C1(C)NC(C2)c2ccccc21 (stereo not shown) [Example 2, 3.5-Dimethyl-10,11-dihYdro-5H-dibenzo[a,d]cyclohepten-5,10-imine] | < 10 mg/kg |
| CC12NC(Cc3ccc(-c4ccccc4)cc31)c1ccccc12 (stereo not shown) [Example 6, 5-Methyl-3-phenyl-10,11-dihydro-5H-dibenzo-[a,d]cyclohepten-5,10-imine hydrochloride] | < 10 mg/kg |
| CC12NC(Cc3ccc(CO)cc31)c1ccccc12 (stereo not shown) [Example 12, 3-HYdroxymethyl-5-methyl-10,11-dihydro-5H-dibenzo-[a,d]cyclohepten-5,10-imine] | < 10 mg/kg |
